US12552775B2, “Compounds and uses thereof” (Foghorn Therapeutics Inc., priority 2020, dated 2026)

Legend:
[1] = target: T1, HiBit-BRG1 fusion protein (Homo sapiens, UniProt P51532); test: HiBiT-BRG1 cell-based degradation assay (Nano-Glo HiBiT Lytic Detection, 24 h); conditions: stable HeLa cell line expressing HiBit-BRG1 and LgBit, top dose 30 μM, read-out: BRG1 HiBit Degradation Maximum (%)
T1 construct: expressed in transfected cells
Summary of the method: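 HeLa cells stably expressing HiBiT-BRG1 plus LgBiT were treated with 10-point 3-fold compound dilutions (top 30 μM final) for 24 h. Lytic Nano-Glo HiBiT luminescence was read. % degradation was normalised between DMSO (high control) and 2 μM of a reference BRM/BRG1 degrader (low control).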

[2] = target: T2, HiBit-BRM fusion protein (Homo sapiens, UniProt P51531); test: HiBiT-BRM cell-based degradation assay (Nano-Glo HiBiT Lytic Detection, 24 h); conditions: stable HeLa cell line expressing HiBiT-BRM, top dose 30 μM
T2 construct: expressed in transfected cells
Summary of the method: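 Percent degradation was scaled between DMSO-treated cells and cells given 2 μM of a known BRM/BRG1 degrader. Readout was NanoBiT luminescence after lytic detection. HeLa cells stably expressing HiBiT-BRM were dosed for 24 h, 10 points, 3-fold steps from 30 μM final, in duplicate.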

T1 sequence (P51532 whole entry, the tested form may be a part): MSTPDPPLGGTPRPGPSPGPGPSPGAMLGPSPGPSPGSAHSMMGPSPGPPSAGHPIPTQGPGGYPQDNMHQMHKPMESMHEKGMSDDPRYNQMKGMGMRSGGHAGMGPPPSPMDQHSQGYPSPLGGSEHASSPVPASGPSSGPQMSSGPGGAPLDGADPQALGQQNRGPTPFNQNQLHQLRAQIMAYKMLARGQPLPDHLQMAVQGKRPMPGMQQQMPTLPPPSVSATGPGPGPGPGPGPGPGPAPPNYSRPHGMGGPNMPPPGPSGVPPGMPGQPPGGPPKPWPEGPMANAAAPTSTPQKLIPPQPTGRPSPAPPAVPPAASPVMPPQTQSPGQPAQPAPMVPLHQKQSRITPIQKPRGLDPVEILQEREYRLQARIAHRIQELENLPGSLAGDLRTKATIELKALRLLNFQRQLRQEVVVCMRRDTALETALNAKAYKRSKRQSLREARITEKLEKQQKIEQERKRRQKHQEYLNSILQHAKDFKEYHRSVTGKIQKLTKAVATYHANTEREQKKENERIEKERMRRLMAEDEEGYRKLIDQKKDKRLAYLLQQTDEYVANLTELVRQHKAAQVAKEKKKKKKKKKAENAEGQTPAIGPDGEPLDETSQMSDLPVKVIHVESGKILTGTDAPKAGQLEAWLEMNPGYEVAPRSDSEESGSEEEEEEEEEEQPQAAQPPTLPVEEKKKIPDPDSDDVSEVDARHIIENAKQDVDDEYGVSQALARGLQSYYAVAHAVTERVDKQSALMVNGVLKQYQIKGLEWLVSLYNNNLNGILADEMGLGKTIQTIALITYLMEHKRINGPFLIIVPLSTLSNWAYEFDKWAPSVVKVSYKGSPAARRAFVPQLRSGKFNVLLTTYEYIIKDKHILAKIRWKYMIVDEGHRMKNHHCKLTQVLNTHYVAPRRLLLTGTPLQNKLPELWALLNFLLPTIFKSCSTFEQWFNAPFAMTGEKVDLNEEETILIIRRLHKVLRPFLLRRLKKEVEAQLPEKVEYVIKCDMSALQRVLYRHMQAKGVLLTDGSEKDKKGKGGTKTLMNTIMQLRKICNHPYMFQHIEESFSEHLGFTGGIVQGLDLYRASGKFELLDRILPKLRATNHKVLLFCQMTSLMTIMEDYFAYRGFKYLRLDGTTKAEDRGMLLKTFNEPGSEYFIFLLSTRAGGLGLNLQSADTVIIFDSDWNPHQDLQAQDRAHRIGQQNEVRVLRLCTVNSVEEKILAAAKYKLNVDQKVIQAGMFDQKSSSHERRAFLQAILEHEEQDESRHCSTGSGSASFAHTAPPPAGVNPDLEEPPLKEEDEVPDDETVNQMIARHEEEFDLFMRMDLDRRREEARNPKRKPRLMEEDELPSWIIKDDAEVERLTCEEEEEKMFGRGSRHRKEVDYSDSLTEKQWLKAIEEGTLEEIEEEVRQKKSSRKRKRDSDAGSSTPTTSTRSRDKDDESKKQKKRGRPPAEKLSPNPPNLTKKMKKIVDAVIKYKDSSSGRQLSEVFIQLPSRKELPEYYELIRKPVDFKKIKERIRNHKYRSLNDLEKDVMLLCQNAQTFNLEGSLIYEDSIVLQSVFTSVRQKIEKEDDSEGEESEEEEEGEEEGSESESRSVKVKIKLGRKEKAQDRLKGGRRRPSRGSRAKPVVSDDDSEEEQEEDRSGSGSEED
T2 sequence (P51531 whole entry, the tested form may be a part): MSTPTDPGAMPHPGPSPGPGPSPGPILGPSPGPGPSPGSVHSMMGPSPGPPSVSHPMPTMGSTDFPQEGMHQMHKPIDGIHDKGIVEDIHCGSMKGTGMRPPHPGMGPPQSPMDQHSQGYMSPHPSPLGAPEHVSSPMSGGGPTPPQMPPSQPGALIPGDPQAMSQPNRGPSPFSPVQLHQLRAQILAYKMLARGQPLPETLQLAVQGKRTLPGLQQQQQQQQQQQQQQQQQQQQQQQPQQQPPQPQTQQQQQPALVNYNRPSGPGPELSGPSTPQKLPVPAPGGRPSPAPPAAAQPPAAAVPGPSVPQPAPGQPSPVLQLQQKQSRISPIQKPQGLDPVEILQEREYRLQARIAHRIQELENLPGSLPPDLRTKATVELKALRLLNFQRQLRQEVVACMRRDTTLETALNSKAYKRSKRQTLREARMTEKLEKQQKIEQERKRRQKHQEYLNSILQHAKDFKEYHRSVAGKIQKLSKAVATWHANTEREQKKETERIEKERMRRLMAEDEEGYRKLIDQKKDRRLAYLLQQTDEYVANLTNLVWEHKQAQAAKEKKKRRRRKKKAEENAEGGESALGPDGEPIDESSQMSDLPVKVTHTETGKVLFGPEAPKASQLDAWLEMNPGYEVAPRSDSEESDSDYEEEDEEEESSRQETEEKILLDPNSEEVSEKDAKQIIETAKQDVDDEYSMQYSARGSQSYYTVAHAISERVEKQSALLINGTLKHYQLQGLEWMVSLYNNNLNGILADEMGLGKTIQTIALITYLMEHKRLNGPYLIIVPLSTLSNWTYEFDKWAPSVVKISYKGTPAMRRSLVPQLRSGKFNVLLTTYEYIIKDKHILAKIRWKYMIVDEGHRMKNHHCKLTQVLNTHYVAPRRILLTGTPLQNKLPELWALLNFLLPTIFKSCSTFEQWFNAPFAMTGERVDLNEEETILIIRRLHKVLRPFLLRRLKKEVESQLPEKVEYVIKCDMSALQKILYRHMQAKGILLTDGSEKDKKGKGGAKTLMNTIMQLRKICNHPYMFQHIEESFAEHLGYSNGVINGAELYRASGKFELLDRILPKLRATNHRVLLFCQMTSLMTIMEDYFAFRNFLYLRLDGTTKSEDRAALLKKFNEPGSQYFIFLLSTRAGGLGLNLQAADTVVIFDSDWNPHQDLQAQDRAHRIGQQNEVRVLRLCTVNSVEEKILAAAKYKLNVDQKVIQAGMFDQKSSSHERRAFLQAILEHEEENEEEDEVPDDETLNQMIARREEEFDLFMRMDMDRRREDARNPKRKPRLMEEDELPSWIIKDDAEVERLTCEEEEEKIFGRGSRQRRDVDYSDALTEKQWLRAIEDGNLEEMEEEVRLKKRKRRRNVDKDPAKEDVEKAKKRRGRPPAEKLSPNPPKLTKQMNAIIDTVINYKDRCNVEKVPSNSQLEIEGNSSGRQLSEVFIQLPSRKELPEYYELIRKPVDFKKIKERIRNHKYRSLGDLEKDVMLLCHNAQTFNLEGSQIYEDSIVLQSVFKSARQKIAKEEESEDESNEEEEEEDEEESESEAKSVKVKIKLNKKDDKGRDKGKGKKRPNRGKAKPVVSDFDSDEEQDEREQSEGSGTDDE

| SMILES | Dmax [1] [%] | BRM HiBit Degradation Maximum (%) [2] |
| --- | --- | --- |
| Nc1nnc(-c2ccccc2O)cc1OCCC12CC(NC(=O)CCCCCCCCCCNc3cccc4c3C(=O)N(C3CCC(=O)NC3=O)C4=O)(C1)C2 (centres unmarked) [Compound 24, N-[3-(2-[[3-amino-6-(2-hydroxyphenyl)pyridazin-4-yl]oxy]ethyl)bicyclo[1.1.1]pentan-1-yl]-11-[[2-(2,6-dioxopiperidin-3-yl)-1,3-dioxoisoindol-4-yl]amino]undecanamide] | < 50 | C (“C” indicates maximum degradation < 50%) |
| Nc1nnc(-c2ccccc2O)cc1OCC12CC(C(=O)NCCOCCOCCNC(=O)COc3cccc4c3C(=O)N(C3CCC(=O)NC3=O)C4=O)(C1)C2 (centres unmarked) [Compound 90, 3-(((3-amino-6-(2-hydroxyphenyl)pyridazin-4-yl)oxy)methyl)-N-(2-(2-(2-(2-((2-(2,6-dioxopiperidin-3-yl)-1,3-dioxoisoindolin-4-yl)oxy)acetamido)ethoxy)ethoxy)ethyl)bicyclo[1.1.1]pentane-1-carboxamide] | < 50 | C (“C” indicates maximum degradation < 50%) |
| Cc1ncsc1-c1ccc(CNC(=O)[C@@H]2C[C@@H](O)CN2C(=O)[C@@H](NC(=O)CCCCCCCCCCCCCCC(=O)NCC23CC(COc4cc(-c5ccccc5O)nnc4N)(C2)C3)C(C)(C)C)cc1 [Compound 41, N1-((3-(((3-amino-6-(2-hydroxyphenyl)pyridazin-4-yl)oxy)methyl)bicyclo[1.1.1]pentan-1-yl)methyl)-N16-((S)-1-((2S,4R)-4-hydroxy-2-((4-(4-methylthiazol-5-yl)benzyl)carbamoyl)pyrrolidin-1-yl)-3,3-dimethyl-1-oxobutan-2-yl)hexadecanediamide] | < 50 | B (“B” indicates maximum degradation ≥ 50%) |
| Nc1nnc(-c2ccccc2O)cc1OCCC12CC(NC(=O)CCCCCCCCNc3cccc4c3C(=O)N(C3CCC(=O)NC3=O)C4=O)(C1)C2 (centres unmarked) [Compound 23, N-[3-(2-[[3-amino-6-(2-hydroxyphenyl)pyridazin-4-yl]oxy]ethyl)bicyclo[1.1.1]pentan-1-yl]-9-[[2-(2,6-dioxopiperidin-3-yl)-1,3-dioxoisoindol-4-yl]amino]nonanamide] | < 50 | C (“C” indicates maximum degradation < 50%) |
| Nc1nnc(-c2ccccc2O)cc1OCC12CC(C(=O)NCCOCCOCCOCCNC(=O)COc3ccc4c(c3)C(=O)N(C3CCC(=O)NC3=O)C4=O)(C1)C2 (centres unmarked) [Compound 93, 3-(((3-amino-6-(2-hydroxyphenyl)pyridazin-4-yl)oxy)methyl)-N-(1-((2-(2,6-dioxopiperidin-3-yl)-1,3-dioxoisoindolin-5-yl)oxy)-2-oxo-6,9,12-trioxa-3-azatetradecan-14-yl)bicyclo[1.1.1]pentane-1-carboxamide] | < 50 | C (“C” indicates maximum degradation < 50%) |
| Nc1nnc(-c2ccccc2O)cc1OCC12CC(C(=O)NCCOCCOCCNC(=O)COc3ccc4c(c3)C(=O)N(C3CCC(=O)NC3=O)C4=O)(C1)C2 (centres unmarked) [Compound 91, 3-(((3-amino-6-(2-hydroxyphenyl)pyridazin-4-yl)oxy)methyl)-N-(2-(2-(2-(2-((2-(2,6-dioxopiperidin-3-yl)-1,3-dioxoisoindolin-5-yl)oxy)acetamido)ethoxy)ethoxy)ethyl)bicyclo[1.1.1]pentane-1-carboxamide] | < 50 | C (“C” indicates maximum degradation < 50%) |
| Cc1ncsc1-c1ccc(CNC(=O)[C@@H]2C[C@@H](O)CN2C(=O)[C@@H](NC(=O)CCCCCCCCCCCCC(=O)NCC23CC(COc4cc(-c5ccccc5O)nnc4N)(C2)C3)C(C)(C)C)cc1 [Compound 40, N1-((3-(((3-amino-6-(2-hydroxyphenyl)pyridazin-4-yl)oxy)methyl)bicyclo[1.1.1]pentan-1-yl)methyl)-N14-((S)-1-((2S,4R)-4-hydroxy-2-((4-(4-methylthiazol-5-yl)benzyl)carbamoyl)pyrrolidin-1-yl)-3,3-dimethyl-1-oxobutan-2-yl)tetradecanediamide] | < 50 | B (“B” indicates maximum degradation ≥ 50%) |
